For orientation: pIC50 means −log10 of the IC50, conventionally taken in molar units. As usually defined, the melting point is the temperature of the solid-liquid transition.

pIC50: −log10 of the molar value.

Sequence of factor Xa (P00742 235-488 limits assumed): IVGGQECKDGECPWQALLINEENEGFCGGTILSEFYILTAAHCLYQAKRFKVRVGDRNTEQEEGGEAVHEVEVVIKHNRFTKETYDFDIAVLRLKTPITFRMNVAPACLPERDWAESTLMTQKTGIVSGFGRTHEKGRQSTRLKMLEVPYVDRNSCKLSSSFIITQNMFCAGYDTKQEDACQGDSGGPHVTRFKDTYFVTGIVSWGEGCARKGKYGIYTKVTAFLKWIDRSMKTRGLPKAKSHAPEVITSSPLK
Sequence of factor Xa (P00742 41-179 partner limits assumed): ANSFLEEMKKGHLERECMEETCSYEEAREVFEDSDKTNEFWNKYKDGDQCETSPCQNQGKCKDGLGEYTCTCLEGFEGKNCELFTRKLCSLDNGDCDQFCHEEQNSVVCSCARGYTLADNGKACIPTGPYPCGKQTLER

The target in one data set is factor Xa (Homo sapiens, UniProt P00742). Nature of the data set: Inhibition of factor Xa (FXa-IC50). It is filed as biochemical. The note with it: Table 1, headed 'Affinity to receptors'; read-out: FXa-IC50. The text has this:
The inhibition of factor Xa by the compounds according to the invention and the measurement of the anticoagulant and antithrombotic activity can be determined by conventional in-vitro or in-vivo methods. A suitable method is described, for example, by J. Hauptmann et al. in Thrombosis and Haemostasis 1990, 63, 220-223.
The inhibition of factor Xa can be measured, for example by the method of T. Hara et al. in Thromb. Haemostas. 1994, 71, 314-319.
`O=C(Nc1ccc(N2CCOCC2=O)cc1)[C@H]1CCCN1C(=O)c1ccc(Cl)s1` [AB1]: the pIC50 is 5.74.

Regarding `O=C(Nc1ccc(N2CCOCC2=O)cc1)[C@H]1CCCN1C(=O)Nc1ccc(Cl)cc1` [Compound A1, 1-N-[(4-chlorophenyl)]-2-N-{[4-(3-oxomorpholin-4-yl)phenyl]}-(R)-pyrrolidine-1,2-dicarboxamide], the pIC50 is 7.74.

Regarding `O=C(Nc1ccc(-n2ccccc2=O)cc1)[C@H]1C[C@@H](O)CN1C(=O)Nc1ccc(Cl)cn1` [Compound A6, 1-N-[(5-chloropyridin-2-yl)]-2-N-{[4-(2-oxo-2H-pyridin-1-yl)phenyl]}-(2R,4R)-4-hydroxypyrrolidine-1,2-dicarboxamide], the pIC50 is 8.43.

Staying with this data set, now noted: read-out: IC50(Xa).
Consider `CCO[C@@H]1C[C@H](C(=O)Nc2ccc(-n3nc(C)sc3=N)cc2)N(C(=O)Nc2ccc(Cl)cc2)C1` [1-N-[(4-chlorophenyl)]-2-N-{[4-(2-imino-5-methyl-1,3,4-thiadiazol-3-yl)phenyl]}-(2R,4R)-4-ethoxypyrrolidine-1,2-dicarboxamide], for which the negative logarithm of the IC50 (pIC50) was 8.32.

As to `Cc1nn(-c2ccc(NC(=O)[C@H]3C[C@@H](OC(C)C)CN3C(=O)Nc3ccc(Cl)cc3)cc2)c(=N)s1` [1-N-[(4-chlorophenyl)]-2-N-{[4-(2-imino-5-methyl-1,3,4-thiadiazol-3-yl)phenyl]}-(2R,4R)-4-isopropoxypyrrolidine-1,2-dicarboxamide], the pIC50 is 8.52.

With `CO[C@@H]1C[C@H](C(=O)Nc2ccc(-n3nc(C)sc3=N)cc2)N(C(=O)Nc2ccc(Cl)cc2)C1` [1-N-[(4-chlorophenyl)]-2-N-{[4-(2-imino-5-methyl-1,3,4-thiadiazol-3-yl)phenyl]}-(2R,4R)-4-methoxypyrrolidine-1,2-dicarboxamide], the pIC50 was 8.21.

`Nc1ccc(O[C@H]2C[C@H](C(=O)Nc3ccc(N4CCOCC4=O)cc3)N(C(=O)Nc3ccc(Cl)cc3)C2)cc1` [Example 13-16, 1-N-[(4-chlorophenyl)]-2-N-{[4-(3-oxomorpholin-4-yl)phenyl]}-(2R,4S)-4-(4-aminophenoxy)pyrrolidine-1,2-dicarboxamide]: the negative logarithm of the IC50 (pIC50) is 7.60.

`O=C(Nc1ccc(N2CCOCC2=O)cc1)[C@H]1C[C@@H](OCC(F)(F)F)CN1C(=O)Nc1ccc(Cl)cc1` [Example 13-18, 1-N-[(4-chlorophenyl)]-2-N-{[4-(3-oxomorpholin-4-yl)phenyl]}-(2R,4R)-4-(2,2,2-trifluoroethoxy)pyrrolidine-1,2-dicarboxamide]: the negative logarithm of the IC50 (pIC50) is 8.01.

Test system in another data set: not given
Experiment: not given
Conditions: not given
`[N-]=[N+]=N[C@H]1C[C@H](C(=O)Nc2ccc(N3CCOCC3=O)cc2)N(C(=O)Nc2ccc(Cl)cc2)C1` [Compound A9, 1-N-[(4-chlorophenyl)]-2-N-{[4-(3-oxomorpholin-4-yl)phenyl]}-(2R,4S)-4-azidopyrrolidine-1,2-dicarboxamide] registered a melting point of 145 °C.

For the origin of these results see patent publication US20080003214A1, “Medicaments Comprising Carbonyl Compounds, And The Use Thereof” (priority 2004, published 2008).
